Laboratory results as given in US12414567B2, “Wear resistant antimicrobial compositions and methods of use” (ECOLAB USA INC., priority 2010, dated 2025).

Test system: MatTek EpiOcular ocular tissues
Experiment: MatTek EpiOcular model ocular irritation (MTT cell viability, Example 16)
Format: cell-based
Details: positive control, 10%, all exposure times (5-60 minutes)
Description: Each of these compositions was diluted at a rate of 2 oz/gal before they were tested using the Epioccular model.
The MatTek EpiOcular™ model can be used to assess the potential ocular irritation of test articles by determining the cell viability of the tissue after exposure to the test articles. The objective of this study was to assess the ocular irritation potential of 1.56% (w/w) 12837.36.1. Control and test article exposure times were 5 minutes, 10 minutes, 20 minutes, 40 minutes and 60 minutes. After the exposures MTT was performed and data was normalized to the negative control, sterile ultrapure water (water purified and deionized˜18.2 MΩ-cm). The positive control, 10% benzalkonium chloride (BC), was effective, reducing cell viability to <10% of control for all exposure times (Tables 2a-e) and FIG. 1). The relative cell viability of ocular tissues treated with 1.56% (w/w) 12837.36.1 was 29.7%, 26.8%, 15.3%, 8.9% and 8.0% after 5, 10, 20, 40 and 60 minute exposures, respectively (Tables 2a-e and FIG. 1), resulting in an ET50 of 1.54 minutes and an estimated in vivo Draize score of 77.2 (Table 1).
The MatTek EipOcular™ model can be used to assess the potential ocular irritation of test articles by determining the cell viability of the tissue after exposure to the test articles. The objective of this study was to assess the ocular irritation potential of 1.56% (w/w) 12837.39.1. […]

## benzalkonium chloride
  cell viability: < 10 % of control
